Reference: BindingDB's records for doi:10.7270/Q2668BKB (The Scripps Research Institute Molecular Screening Center, 2009)

Target: T1, 2'-phosphotransferase (Candida albicans (strain SC5314 / ATCC MYA-2876), UniProt Q5A7N4)
T1 sequence (Q5A7N4 whole entry): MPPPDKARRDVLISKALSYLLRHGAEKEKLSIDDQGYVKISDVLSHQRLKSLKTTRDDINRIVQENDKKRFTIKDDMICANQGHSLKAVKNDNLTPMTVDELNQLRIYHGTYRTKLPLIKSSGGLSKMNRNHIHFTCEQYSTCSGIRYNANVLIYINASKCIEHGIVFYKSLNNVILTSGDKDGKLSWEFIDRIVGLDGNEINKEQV
Assay: inhibition of Candida TPT1 enzyme activity – biochemical, fluorescence polarization, dose response (AID 2160)

## Cc1ccc2nc(N=NCc3ccc([N+](=O)[O-])o3)nc(-c3ccccc3)c2c1
  IC50: > 55.7 µM
